Results: ChEMBL document CHEMBL4699433, “Rational design, synthesis and testing of novel tricyclic topoisomerase inhibitors for the treatment of bacterial infections part 2” (RSC Med Chem, 2020)
pIC50: −log10 of the molar value. In brackets after ≈: the same amount, converted by molar mass. Blank lines part the entries; values can stand above or below the molecule they belong to.

Assays:
[1] = tested on: Staphylococcus aureus; assay: Antibacterial activity against wild type methicillin-sensitive Staphylococcus aureus ATCC 29213 assessed as reduction in bacterial growth by CLSI based broth microdilution method; format: functional
[2] = tested on: Streptococcus pneumoniae; assay: Antibacterial activity against Streptococcus pneumoniae ATCC 49619 assessed as reduction in bacterial growth by CLSI based broth microdilution method; format: functional
[3] = tested on: Escherichia coli; assay: Antibacterial activity against Escherichia coli ATCC 25922 assessed as reduction in bacterial growth by CLSI based broth microdilution method; format: functional
[4] = tested on: Haemophilus influenzae; assay: Antibacterial activity against Haemophilus influenzae ATCC 49247 assessed as reduction in bacterial growth by CLSI based broth microdilution method; format: functional
[5] = tested on: Staphylococcus aureus; assay: Antibacterial activity against methicillin-resistant Staphylococcus aureus N315 NRS70 assessed as reduction in bacterial growth by CLSI based broth microdilution method; format: functional
[6] = tested on: Staphylococcus aureus; assay: Antibacterial activity against COL-resistant, methicillin-resistant Staphylococcus aureus NRS100 assessed as reduction in bacterial growth by CLSI based broth microdilution method; format: functional
[7] = tested on: Staphylococcus aureus; assay: Antibacterial activity against AMG-, QAC-, TMP- resistant methicillin- resistant Staphylococcus aureus NRS106 assessed as reduction in bacterial growth by CLSI based broth microdilution method; format: functional
[8] = tested on: Staphylococcus aureus; assay: Antibacterial activity against MUP resistant (RN4220 + pGO400), methicillin-resistant Staphylococcus aureus NRS107 assessed as reduction in bacterial growth by CLSI based broth microdilution method; format: functional
[9] = tested on: Staphylococcus aureus; assay: Antibacterial activity against AMG-resistant, methicillin-resistant Staphylococcus aureus NRS108 assessed as reduction in bacterial growth by CLSI based broth microdilution method; format: functional
[10] = tested on: Staphylococcus aureus; assay: Antibacterial activity against CA-MRSA ERY-, TET-resistant, FQ Int resistant (USA300 LAC) Staphylococcus aureus NRS384 assessed as reduction in bacterial growth by CLSI based broth microdilution method; format: functional
[11] = tested on: Staphylococcus aureus; assay: Antibacterial activity against Staphylococcus aureus ATCC 43300 assessed as reduction in bacterial growth by CLSI based broth microdilution method; format: functional
[12] = tested on: Staphylococcus aureus; assay: Antibacterial activity against FQ-resistant methicillin-resistant Staphylococcus aureus NRS74 assessed as reduction in bacterial growth by CLSI based broth microdilution method; format: functional
[13] = tested on: Staphylococcus aureus; assay: Antibacterial activity against AMG- and TET-resistant (Mu50) GyrA (S84L,E409L), GrlA (S80F), methicillin-resistant Staphylococcus aureus NRS1 assessed as reduction in bacterial growth by CLSI based broth microdilution method; format: functional
[14] = tested on: Staphylococcus aureus; assay: Antibacterial activity against LZD-resistant, methicillin-resistant Staphylococcus aureus NRS127 assessed as reduction in bacterial growth by CLSI based broth microdilution method; format: functional
[15] = tested on: Staphylococcus aureus; assay: Antibacterial activity against Staphylococcus aureus VRS1 assessed as reduction in bacterial growth by CLSI based broth microdilution method; format: functional
[16] = tested on: Staphylococcus aureus; assay: Antibacterial activity against FQ-resistant, methicillin-resistant Staphylococcus aureus NRS482 assessed as reduction in bacterial growth by CLSI based broth microdilution method; format: functional
[17] = tested on: Staphylococcus aureus; assay: Antibacterial activity against LZD-resistant methicillin-resistant Staphylococcus aureus NRS271 assessed as reduction in bacterial growth by CLSI based broth microdilution method; format: functional
[18] = tested on: Staphylococcus aureus; assay: Antibacterial activity against VAN resistant methicillin- resistant Staphylococcus aureus VRS8 assessed as reduction in bacterial growth by CLSI based broth microdilution method; format: functional
[19] = tested on: Enterococcus faecalis; assay: Antibacterial activity against wild type Enterococcus faecalis ATCC 29212 assessed as reduction in bacterial growth by CLSI based broth microdilution method; format: functional
[20] = tested on: Staphylococcus epidermidis; assay: Antibacterial activity against wild type Staphylococcus epidermidis ATCC 12228 assessed as reduction in bacterial growth by CLSI based broth microdilution method; format: functional
[21] = tested on: Staphylococcus epidermidis; assay: Antibacterial activity against MRSE AMG-, ERY-resistant Staphylococcus epidermidis NRS101 assessed as reduction in bacterial growth by CLSI based broth microdilution method; format: functional
[22] = tested on: Enterococcus faecium; assay: Antibacterial activity against wild type Enterococcus faecium ATCC 19434 assessed as reduction in bacterial growth by CLSI based broth microdilution method; format: functional
[23] = tested on: Enterococcus faecium; assay: Antibacterial activity against VAN-resistant Enterococcus faecium ATCC 700221 assessed as reduction in bacterial growth by CLSI based broth microdilution method; format: functional
[24] = tested on: Streptococcus pyogenes; assay: Antibacterial activity against wild type Streptococcus pyogenes ATCC 19615 assessed as reduction in bacterial growth by CLSI based broth microdilution method; format: functional
[25] = tested on: Neisseria gonorrhoeae; assay: Antibacterial activity against wild-type Neisseria gonorrhoeae ATCC 49226 assessed as reduction in bacterial growth by agar dilution method; format: functional
[26] = tested on: Neisseria gonorrhoeae; assay: Antibacterial activity against wild type Neisseria gonorrhoeae ATCC 700825 assessed as reduction in bacterial growth by agar dilution method; format: functional
[27] = Cytotoxicity against human HepG2 cells; format: cell-based
[28] = Protein binding in human plasma assessed as free fraction; format: ADME, cell-free
[29] = Intrinsic clearance in human hepatocytes assessed per 10^6 cells; format: ADME, cell-based, Hepatocyte; settings: read-out: CLH
[30] = Efflux ratio of permeability in human Caco2 cells; format: ADME, cell-based; settings: Caco-2
[31] = target: Cytochrome P450 1A2 (Homo sapiens, UniProt P05177); assay: Inhibition of CYP1A2 (unknown origin); format: ADME
[32] = target: Cytochrome P450 2C9 (Homo sapiens, UniProt P11712); assay: Inhibition of CYP2C9 (unknown origin); format: ADME
[33] = target: Cytochrome P450 2C19 (Homo sapiens, UniProt P33261); assay: Inhibition of CYP2C19 (unknown origin); format: ADME
[34] = target: Cytochrome P450 2D6 (Homo sapiens, UniProt P10635); assay: Inhibition of CYP2D6 (unknown origin); format: ADME
[35] = target: Cytochrome P450 3A4 (Homo sapiens, UniProt P08684); assay: Inhibition of CYP3A4 (unknown origin); format: ADME
[36] = Kinetic solubility of compound at pH 7.4; format: physicochemical; settings: buffer, read-out: Kinetic_solubility
[37] = target: Voltage-gated inwardly rectifying potassium channel KCNH2 (Homo sapiens, UniProt Q12809); assay: Inhibition of human ERG by patch clamp assay
[38] = target: Sodium channel protein type 5 subunit alpha (Homo sapiens, UniProt Q14524); assay: Inhibition of Nav1.5 (unknown origin) by patch clamp assay
[39] = target: Voltage-dependent L-type calcium channel subunit alpha-1C (Homo sapiens, UniProt Q13936); assay: Inhibition of Cav1.2 (unknown origin) by patch clamp assay
[40] = tested on: TK6; assay: Genotoxicity in human TK6 cells at 200 uM in absence of S9 fraction by BlueScreen assay; format: toxicity, cell-based; settings: tk6, 200 µM
[41] = tested on: TK6; assay: Genotoxicity in human TK6 cells at 200 uM in presence of S9 fraction by BlueScreen assay; format: toxicity, cell-based; settings: s9, 200 µM
[42] = Apparent permeability in human Caco2 cells; format: ADME, cell-based; settings: Caco-2
[43] = tested on: Staphylococcus aureus; assay: Antibacterial activity against Staphylococcus aureus clinical isolate assessed as reduction in bacterial growth by CLSI based broth microdilution method; format: functional
[44] = target: DNA gyrase (Staphylococcus aureus, UniProt P0A0K8+P20831); assay: Inhibition of Staphylococcus aureus DNA gyrase using relaxed pBR322 as substrate incubated for 30 mins by ethidium bromide staining based gel electrophoresis analysis; format: protein-complex assay
[45] = target: Topoisomerase IV (Staphylococcus aureus, UniProt P0C1S7+P0C1U9); assay: Inhibition of Staphylococcus aureus topoisomerase IV using kDNA as substrate incubated for 30 mins by ethidium bromide staining based gel electrophoresis analysis; format: protein-complex assay
[46] = Thermodynamic solubility of the compound; format: physicochemical; settings: read-out: Therm_solubility

Cytochrome P450 2C19, sequence (P33261 whole entry): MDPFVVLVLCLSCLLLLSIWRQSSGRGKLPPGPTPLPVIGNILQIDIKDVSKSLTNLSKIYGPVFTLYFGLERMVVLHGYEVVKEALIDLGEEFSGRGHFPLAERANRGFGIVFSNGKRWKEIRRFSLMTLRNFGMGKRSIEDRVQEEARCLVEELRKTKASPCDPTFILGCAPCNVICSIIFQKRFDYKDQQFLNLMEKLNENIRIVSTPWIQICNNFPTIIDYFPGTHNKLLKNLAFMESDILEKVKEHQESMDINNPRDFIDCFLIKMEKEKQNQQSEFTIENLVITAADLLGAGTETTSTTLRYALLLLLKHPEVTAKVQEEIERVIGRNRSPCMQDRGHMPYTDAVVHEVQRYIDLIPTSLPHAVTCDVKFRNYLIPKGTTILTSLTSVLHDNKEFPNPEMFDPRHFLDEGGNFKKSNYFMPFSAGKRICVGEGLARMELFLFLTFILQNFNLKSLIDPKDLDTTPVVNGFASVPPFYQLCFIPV
Cytochrome P450 2C9, sequence (P11712 whole entry): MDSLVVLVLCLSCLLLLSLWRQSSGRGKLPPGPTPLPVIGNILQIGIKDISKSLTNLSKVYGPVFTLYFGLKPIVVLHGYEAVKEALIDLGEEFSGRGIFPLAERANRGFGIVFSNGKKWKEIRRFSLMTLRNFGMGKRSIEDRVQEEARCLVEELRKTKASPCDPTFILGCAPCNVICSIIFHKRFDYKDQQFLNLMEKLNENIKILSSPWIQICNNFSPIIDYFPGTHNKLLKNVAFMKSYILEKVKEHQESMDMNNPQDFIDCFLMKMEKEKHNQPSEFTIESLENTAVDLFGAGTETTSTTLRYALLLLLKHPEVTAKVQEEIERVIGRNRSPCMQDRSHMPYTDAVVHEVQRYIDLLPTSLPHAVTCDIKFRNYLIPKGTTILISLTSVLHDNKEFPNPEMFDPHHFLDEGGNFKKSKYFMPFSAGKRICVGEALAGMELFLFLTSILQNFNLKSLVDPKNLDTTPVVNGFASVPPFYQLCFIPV
Voltage-gated inwardly rectifying potassium channel KCNH2, sequence (Q12809 whole entry): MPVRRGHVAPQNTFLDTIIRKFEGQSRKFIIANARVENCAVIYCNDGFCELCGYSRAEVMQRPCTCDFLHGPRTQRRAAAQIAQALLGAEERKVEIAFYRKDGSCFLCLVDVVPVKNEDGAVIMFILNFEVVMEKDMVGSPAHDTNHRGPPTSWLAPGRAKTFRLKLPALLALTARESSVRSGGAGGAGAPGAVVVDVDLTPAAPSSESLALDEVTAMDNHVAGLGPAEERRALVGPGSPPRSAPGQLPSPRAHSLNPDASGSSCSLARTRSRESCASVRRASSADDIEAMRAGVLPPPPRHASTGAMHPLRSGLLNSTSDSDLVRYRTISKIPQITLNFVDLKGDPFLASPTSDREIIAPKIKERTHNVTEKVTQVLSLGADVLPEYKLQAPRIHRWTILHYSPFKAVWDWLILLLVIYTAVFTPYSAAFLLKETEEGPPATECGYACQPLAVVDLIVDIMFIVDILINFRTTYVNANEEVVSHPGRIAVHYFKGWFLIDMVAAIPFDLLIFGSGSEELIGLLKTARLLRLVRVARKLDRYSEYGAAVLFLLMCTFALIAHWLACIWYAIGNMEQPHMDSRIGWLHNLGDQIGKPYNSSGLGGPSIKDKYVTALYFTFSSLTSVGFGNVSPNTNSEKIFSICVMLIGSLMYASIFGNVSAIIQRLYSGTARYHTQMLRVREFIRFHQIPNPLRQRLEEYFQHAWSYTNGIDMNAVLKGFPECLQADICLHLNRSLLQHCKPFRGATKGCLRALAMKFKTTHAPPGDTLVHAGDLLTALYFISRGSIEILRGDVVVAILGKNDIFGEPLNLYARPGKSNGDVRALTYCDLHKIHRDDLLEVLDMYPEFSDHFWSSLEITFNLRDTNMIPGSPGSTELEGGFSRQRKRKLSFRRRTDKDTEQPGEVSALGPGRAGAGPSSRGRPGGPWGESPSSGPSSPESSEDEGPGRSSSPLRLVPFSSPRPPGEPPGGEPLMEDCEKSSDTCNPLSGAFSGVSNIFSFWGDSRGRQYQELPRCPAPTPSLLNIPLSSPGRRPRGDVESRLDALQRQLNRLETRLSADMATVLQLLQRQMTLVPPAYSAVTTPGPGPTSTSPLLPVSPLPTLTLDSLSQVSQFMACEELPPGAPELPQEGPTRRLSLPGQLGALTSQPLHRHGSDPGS
Cytochrome P450 3A4, sequence (P08684 whole entry): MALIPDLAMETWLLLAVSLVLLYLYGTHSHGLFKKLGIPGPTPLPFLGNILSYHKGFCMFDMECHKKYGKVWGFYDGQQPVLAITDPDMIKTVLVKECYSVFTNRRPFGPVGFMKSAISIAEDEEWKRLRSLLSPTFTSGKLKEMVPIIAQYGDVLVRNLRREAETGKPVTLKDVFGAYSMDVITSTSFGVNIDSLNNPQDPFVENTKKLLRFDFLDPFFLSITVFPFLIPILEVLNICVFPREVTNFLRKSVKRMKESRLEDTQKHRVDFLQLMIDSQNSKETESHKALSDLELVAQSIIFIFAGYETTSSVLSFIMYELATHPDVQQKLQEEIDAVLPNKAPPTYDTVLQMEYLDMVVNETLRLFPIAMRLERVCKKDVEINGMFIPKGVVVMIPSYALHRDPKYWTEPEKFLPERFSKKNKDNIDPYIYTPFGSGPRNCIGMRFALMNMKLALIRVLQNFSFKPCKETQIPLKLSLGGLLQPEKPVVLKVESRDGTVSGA
Cytochrome P450 2D6, sequence (P10635 whole entry): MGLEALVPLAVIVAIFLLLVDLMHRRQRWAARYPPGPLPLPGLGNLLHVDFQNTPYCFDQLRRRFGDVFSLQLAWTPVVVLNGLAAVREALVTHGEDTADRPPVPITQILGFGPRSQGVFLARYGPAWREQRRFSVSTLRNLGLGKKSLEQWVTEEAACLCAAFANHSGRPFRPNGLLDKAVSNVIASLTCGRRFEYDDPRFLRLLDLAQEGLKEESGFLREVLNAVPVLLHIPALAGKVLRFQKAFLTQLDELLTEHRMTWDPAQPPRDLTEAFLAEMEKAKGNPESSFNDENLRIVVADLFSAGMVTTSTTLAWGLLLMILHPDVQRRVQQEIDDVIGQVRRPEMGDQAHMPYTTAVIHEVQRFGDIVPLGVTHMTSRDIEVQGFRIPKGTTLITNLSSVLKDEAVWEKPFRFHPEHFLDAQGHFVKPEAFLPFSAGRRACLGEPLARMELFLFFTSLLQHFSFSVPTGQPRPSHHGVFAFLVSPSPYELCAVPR
Cytochrome P450 1A2, sequence (P05177 whole entry): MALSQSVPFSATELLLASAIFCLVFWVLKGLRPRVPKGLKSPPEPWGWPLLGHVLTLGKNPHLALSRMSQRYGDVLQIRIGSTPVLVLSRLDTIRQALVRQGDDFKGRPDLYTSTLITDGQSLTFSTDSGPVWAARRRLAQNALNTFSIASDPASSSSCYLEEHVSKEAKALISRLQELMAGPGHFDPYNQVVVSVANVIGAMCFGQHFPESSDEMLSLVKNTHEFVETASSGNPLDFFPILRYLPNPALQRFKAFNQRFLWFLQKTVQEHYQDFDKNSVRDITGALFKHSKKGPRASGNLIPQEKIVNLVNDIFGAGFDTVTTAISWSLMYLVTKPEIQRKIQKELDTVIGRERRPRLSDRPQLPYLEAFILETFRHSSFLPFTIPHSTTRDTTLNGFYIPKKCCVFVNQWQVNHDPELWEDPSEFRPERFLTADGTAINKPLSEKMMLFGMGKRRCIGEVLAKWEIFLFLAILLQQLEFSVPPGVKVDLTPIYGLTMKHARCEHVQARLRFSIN

MIC [1]: 0.25 µg/mL (≈ 0.617 µM) | MIC [2]: 0.25 µg/mL (≈ 0.617 µM) | MIC [3]: 1 µg/mL (≈ 2.47 µM) | MIC [4]: 1 µg/mL (≈ 2.47 µM) | solubility thermodynamic [46]: 1180 µg/mL (≈ 2920 µM)
SMILES: CNCC1CCN(c2c(F)cc3c4oc(C)nc4c(=O)n(C4CC4)c3c2Cl)C1 (stereo not drawn)

MIC [1]: 0.5 µg/mL (≈ 1.34 µM) | MIC [2]: 0.5 µg/mL (≈ 1.34 µM) | MIC [3]: 2 µg/mL (≈ 5.37 µM) | MIC [4]: 4 µg/mL (≈ 10.7 µM)
SMILES: Cc1nc2c(=O)n3c4c(c(N5CCC(CN)C5)c(F)cc4c2o1)OC[C@@H]3C (stereo partly drawn)

MIC [1]: 0.25 µg/mL (≈ 0.64 µM) | MIC [2]: 0.5 µg/mL (≈ 1.28 µM) | MIC [3]: 0.5 µg/mL (≈ 1.28 µM) | MIC [4]: 1 µg/mL (≈ 2.56 µM) | solubility thermodynamic [46]: 922 µg/mL (≈ 2360 µM)
SMILES: Cc1nc2c(=O)n(C3CC3)c3c(Cl)c(N4CCC(N)CC4)c(F)cc3c2o1

More lines, now with the values behind:

SMILES: Cc1nc2c(=O)n(C3CC3)c3c(Cl)c(N4CC[C@@H]([C@H](C)N)C4)c(F)cc3c2o1
MIC [1]: 0.06 µg/mL (≈ 0.148 µM) | MIC [2]: 0.015 µg/mL (≈ 0.037 µM) | MIC [3]: 0.5 µg/mL (≈ 1.23 µM) | MIC [4]: 1 µg/mL (≈ 2.47 µM) | MIC [5]: 0.06 µg/mL (≈ 0.148 µM) | MIC [6]: 0.12 µg/mL (≈ 0.296 µM) | MIC [7]: 0.12 µg/mL (≈ 0.296 µM) | MIC [8]: 0.12 µg/mL | MIC [9]: 0.12 µg/mL (≈ 0.296 µM) | MIC [10]: 0.12 µg/mL (≈ 0.296 µM) | MIC [11]: 0.12 µg/mL (≈ 0.296 µM) | MIC [12]: 0.12 µg/mL (≈ 0.296 µM) | MIC [13]: 0.25 µg/mL (≈ 0.617 µM) | MIC [14]: 0.5 µg/mL (≈ 1.23 µM) | MIC [15]: 0.5 µg/mL (≈ 1.23 µM) | MIC [16]: 0.12 µg/mL (≈ 0.296 µM) | MIC [17]: 0.5 µg/mL (≈ 1.23 µM) | MIC [18]: 0.5 µg/mL (≈ 1.23 µM) | MIC [19]: 0.12 µg/mL (≈ 0.296 µM) | MIC [20]: 0.06 µg/mL (≈ 0.148 µM) | MIC [21]: 1 µg/mL (≈ 2.47 µM) | MIC [22]: 8 µg/mL (≈ 19.8 µM) | MIC [23]: 8 µg/mL (≈ 19.8 µM) | MIC [24]: 0.015 µg/mL (≈ 0.037 µM) | MIC [25]: 0.12 µg/mL (≈ 0.296 µM) | MIC [26]: 0.03 µg/mL (≈ 0.0741 µM) | CC50 [27]: 32 µg/mL (≈ 79 µM) | fraction unbound [28]: 0.244 | hepatocyte CLint [29]: 3 µL/min/1e6 cells | efflux ratio [30]: 2.2 | pIC50 [31]: 4.52 | pIC50 [32]: 4.79 | pIC50 [33]: 4.52 | pIC50 [34]: 4.52 | pIC50 [35]: 4.76 | solubility kinetic [36]: > 100 µM | pIC50 [37]: 4.54 | pIC50 [38]: 4.67 | pIC50 [39]: 4.03 | Activity [40]: Non-Toxic | Activity [41]: Toxic | Papp [42]: 20.7 ×10⁻⁶ cm/s | MIC90 [43]: 0.5 µg/mL (≈ 1.23 µM) | pIC50 [44]: 5.74 | pIC50 [45]: 5.21

SMILES: Cc1nc2c(=O)n3c4c(c(N5CCC(CN)C5)c(F)cc4c2o1)OC[C@H]3C (stereo partly drawn)
MIC [1]: 64 µg/mL (≈ 172 µM) | MIC [2]: 128 µg/mL (≈ 344 µM) | MIC [3]: 64 µg/mL (≈ 172 µM) | MIC [4]: 128 µg/mL (≈ 344 µM)

SMILES: Cc1nc2c(=O)n(C3CC3)c3c(Cl)c(N4CCNCC4)c(F)cc3c2o1
MIC [1]: 0.25 µg/mL (≈ 0.663 µM) | MIC [2]: 4 µg/mL (≈ 10.6 µM) | MIC [3]: 0.5 µg/mL (≈ 1.33 µM) | MIC [4]: 0.5 µg/mL (≈ 1.33 µM) | solubility thermodynamic [46]: 885 µg/mL (≈ 2350 µM)
